Assay results taken from patent US6949516B2, “Dipeptide apoptosis inhibitors and the use thereof” (Cytovia, Inc., priority 1997, dated 2005).

Legend:
Caspase-6 = target: T1, Caspase-6 (Homo sapiens, UniProt P55212); test: Recombinant caspase assay with Ac-DEVD-AMC, caspase-6; assay type: biochemical; conditions: 10 μM Ac-DEVD-AMC, 30 minutes at 37° C.
T1 construct: purchased PharMington (PharMingen, a Becton division company, San Diego, Calif.)
T1 sequence (P55212 24-179 limits assumed): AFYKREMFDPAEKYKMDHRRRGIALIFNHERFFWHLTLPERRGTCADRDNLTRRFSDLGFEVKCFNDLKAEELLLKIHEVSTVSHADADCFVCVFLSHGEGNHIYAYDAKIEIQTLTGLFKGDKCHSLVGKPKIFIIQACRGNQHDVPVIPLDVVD
Method: (§1) The inhibitory activity of Cbz-Val-Asp-CH2F in recombinant caspase 3, 6, 7 and 8 obtained from PharMington (a Becton division company, San Diego, Calif.) were measured using Ac-DEVD-AMC (SEQ ID NO:1). The amount of each enzyme per assay was as following: 1 ng caspase3, 15 ng caspase6, 2 ng caspase7 and 60 ng caspase8. The enzyme reaction was conducted in 96-well plate using a caspase buffer (20 mM PIPES, 100 mM NaCl, 10 mM DTT, 1 mM EDTA, 0.1% CHAPS and 10% sucrose, pH 7.2) and the reaction was initiated by adding 10 μM Ac-DEVD-AMC (SEQ ID NO:1) (purchased from Quality Controlled Biochemicals, Inc. Hopkinton, Mass.). Twelve concentrations of Cbz-Val-Asp-CH2F ranged from 30 μM to […] were tested after incubation of the compound with recombinant caspases for 30 minutes at 37° C. […] The data was analyzed using GraphPrism software.

Caspase-7 = target: T2, Caspase-7 (Homo sapiens, UniProt P55210); test: Recombinant caspase assay with Ac-DEVD-AMC, caspase-7; assay type: biochemical; conditions: 10 μM Ac-DEVD-AMC, 30 minutes at 37° C.
T2 construct: purchased PharMington (PharMingen, a Becton division company, San Diego, Calif.)
T2 sequence (P55210 24-198 limits assumed): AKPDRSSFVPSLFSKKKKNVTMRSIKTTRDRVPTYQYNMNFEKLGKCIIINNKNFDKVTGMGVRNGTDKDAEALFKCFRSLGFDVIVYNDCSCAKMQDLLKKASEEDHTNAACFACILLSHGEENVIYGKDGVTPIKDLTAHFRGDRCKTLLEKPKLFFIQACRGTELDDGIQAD
Method: as §1

Caspase-8 = target: T3, Caspase-8 (Homo sapiens, UniProt Q14790); test: Recombinant caspase assay with Ac-DEVD-AMC, caspase-8; assay type: biochemical; conditions: 10 μM Ac-DEVD-AMC, 30 minutes at 37° C.
T3 construct: purchased PharMington (PharMingen, a Becton division company, San Diego, Calif.)
Method: as §1

[1] = tested on: PARP cleavage in Jurkat cells; test: Effect of Z-VD-fmk on PARP cleavage in antiFas-treated Jurkat cells (Example 24); assay type: cell-based, human
Method: Poly(ADP)ribose polymerase (PARP) was one of the first caspase-3 substrates identified and the cleavage of PARP is still considered to be a near-universal marker for caspase-3 activation and caspase-mediated apoptosis. The ability of an anti-apoptotic compound to block PARP cleavage is therefore a useful indicator of its ability to inhibit apoptosis. The potency of Z-VD-fmk in a PARP cleavage assay was tested using antiFas-treated Jurkat cells. 2×10^6 Jurkat cells were seeded in each well of a 6-well dish and pre-incubated with test compounds for 30 minutes. The cells were then challenged with 500 ng/mL of an agonistic antiFas antibody or PBS for 4 hours. The cells were then harvested, pelleted gently, washed two times with PBS and lysed in RIPA buffer. Aliquots of the lysate were analyzed by SDS-PAGE and the proteins were transferred to PVDF membranes for Western blotting. The primary antibody was a polyclonal antiPARP serum which cross-reacts with both full-length PARP and the caspase-3-generated cleavage product.

[2] = tested on: rat transient focal ischemia model; test: Rat transient focal ischemia model; assay type: in vivo; conditions: for reduction of cortical infarction: p<0.05
Source text: (i) Preparative Surgery: Male Fischer-344 rats (Harlan Sprague Dawley, Calif.) weighing 200-240 g, were used. Animals were initially anesthetized with 3% halothane in a mixture of 30% oxygen and 70% air. Halothane level were reduced to 1.5% for maintenance of anesthesia throughout surgery. […] (b) Arterial catheter implantation: the femoral artery were cannulated to allow monitoring of the blood pressure, and other physiological conditions include pO2, pCO2, pH, glucose, hematocrite, during ischemia, initial drug administration, and the time of arterial reperfusion. Both arterial and venous catheters were exteriorized through the back of the animal, to allow free movement. (c) A PhysioTel Transmitter (Data Sciences International, Mich.) were implanted into the peritoneal cavity to remotely monitor the body temperature of the animals for 22 hours.
(ii) Physiological parameters: Core body temperature was maintained at 37.5° C. during surgery, using a YSI Reusable Temperature Probe (YSI Co. Inc., Yellow Spring, Ohio) connected to a YSI Temperature Control Unit (Model 73A, YSI Co. Inc., Ohio) and a Electric Heating Pad (Model 756, Sunbean-Oster Co. Inc., Hattiesburg, Miss.). Following ischemia, the PhysioTel Transmitter was activated and core body temperature was recorded every 5 minutes. Systemic blood pressure was monitored throughout surgery, during intravenous drug infusion (bolus), and 1, 2, 3, and 4 hours after the onset of ischemia. Other physiological conditions, including pO2, pCO2, pH, glucose, and hematocrite were examined at the time of arterial occlusion and reperfusion.
(iii) Transient focal ischemia model: Following preparative surgery, a ventral midline cervical incision was made to expose both CCAs. The right CCA was permanently ligated with 4-o silk ligature, while the left CCA was clamped with an atraumatic aneurysm clip. A 1-cm incision perpendicular to and bisecting a line between the lateral canthus of the right eye and the external auditory canal was made. The underlying temporalis muscle was excised and retracted and under direct visualization with the aid of a dissecting microscope (Model SZ-STB1, Olympus, Japan), the middle cerebral artery (MCA) was exposed through a 2 mm burr hole drilled 2-3 mm rostral to the fusion of the zygomatic arch and the squamosal bone. Drilling was done under a continuous irrigation of physiological saline. The dura was cut and retracted to expose the MCA in the rhinal fissure. A Codman micro-aneurysm clip (No. 1) was used to temporarily occlude the MCA as it crosses the rhinal fissure. […] The areas of cortical and subcortical infarction were measured blindly with imaging processing software, and the volume of infarction was calculated by adding up individual measures with known thickness. […]

T3 sequence (Q14790 217-374 limits assumed): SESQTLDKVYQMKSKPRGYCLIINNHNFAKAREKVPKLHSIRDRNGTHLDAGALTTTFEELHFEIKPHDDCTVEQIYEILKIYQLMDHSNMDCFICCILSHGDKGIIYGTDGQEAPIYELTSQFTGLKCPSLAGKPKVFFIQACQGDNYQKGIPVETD

CC(C)[C@H](NC(=O)OCc1ccccc1)C(=O)NC(CC(=O)O)C(=O)CF (stereo partly drawn) [Cbz-Val-Asp-CH2F, Z-Val-Asp-fmk]
IC50 (Caspase-6): 18.4 nM
IC50 (Caspase-7): 6.8 nM
IC50 (Caspase-8): 7.2 nM
inhibition of PARP cleavage ([1]; 50 nM, antiFas-treated Jurkat cells): still retains much of its inhibitory activity
inhibition of PARP cleavage ([1]; 250 nM, antiFas-treated Jurkat cells): completely inhibits
inhibition of PARP cleavage ([1]; 500 nM, antiFas-treated Jurkat cells): completely inhibits
potency as inhibitor of PARP cleavage in intact cells, fold relative to Z-VAD-fmk ([1]; Jurkat cells): at least 10 fold
IC50 ([1]; antiFas-treated Jurkat cells, read-out: IC50, inhibition of PARP cleavage (whole-cell apoptosis model)): < 50 nM
reduction of cortical infarction ([2]; Experiment 1: rat, 20 mg/kg IV bolus 10 minutes after onset of ischemia + 5 mg/kg/hr IV infusion for 6 h): 46%
reduction of cortical infarction ([2]; Experiment 2: rat, 20 mg/kg IV bolus 10 minutes after onset of ischemia + 5 mg/kg/hr IV infusion for 12 h): 57%
tolerability following acute IV dosing ([2]; rat): well tolerated
changes in blood pressure, blood gas, or temperature following drug administration ([2]; rat, 20 mg/kg IV bolus + 5 mg/kg/hr infusion): no changes
